Results from patent US11555012B2 (Nimbus Artemis, Inc., priority 2018, dated 2023).
Read-outs that look alike come from different tables or passages of the source.

Experiments:
HepG2 cells [1] = conditions: Homo sapiens, HepG2, read-out: ACLY HepG2 14C-Pyruvate Assay serum free IC50 FA (IC50) [μM]
HepG2 cells [2] = conditions: Homo sapiens, HepG2, read-out: ACLY HepG2 14C-Pyruvate Assay serum free IC50 Cholesterol (IC50) [μM]
Description: ACLY HepG2 ^14C-Pyruvate Incorporation Serum-Free Assay (IC50 Cholesterol and Fatty Acid Synthesis)
Compounds of the present invention were evaluated in a HepG2 ^14C-pyruvate incorporation assay. The protocol below was followed:
After 48 hours, change medium with fresh growth medium.
After 18 hours, replaced medium using 0.5 mL fresh medium (5.5 mM Glucose, without FBS, 1% PS, without Pyruvate) containing Compounds or 0.5% DMSO, incubated at 37° C., 5% CO2 for 1 hour.
Add 3 μci of [14C]-pyruvate per well to the cell samples were incubated at 37° C., 5% CO2 for 5 hours.
Medium was removed and placed into a 15 mL centrifuge tube. Add 0.5 mL of 0.1M NaOH to each well and then transfer the cell lysates into the corresponding 15 mL centrifuge tubes. 1.0 mL of EtOH and 0.17 mL 50% KOH were added to 15 mL tubes containing medium and cell suspensions, then shaking tube gently. […] Saponification 15 mL tubes containing medium and cell suspensions were incubated at 90° C. for 1 hour, then cooled to room temperature. […] Cholesterol Extraction 5 mL of petroleum ether was added per tube to extract Cholesterol, shaken vigorously, centrifuged at 1000 rpm for 5 min, and ˜5 mL of the petroleum ether layer was transferred to a new glass tube (18*180 mm). […] Acidification The samples in 15 mL tube were acidified directly with 1 mL concentrated HCl, make sure pH was below 1. […] Fatty Acids Extraction 5 mL of petroleum ether was added per tube, shaken vigorously, centrifuged at 1000 rpm for 5 min, 5 mL of the petroleum ether layer was transferred to the corresponding glass tube. […] Count The petroleum ether extracts were pooled and evaporated to dryness overnight. The residue from the petroleum ether fractions were resuspended in 500 μL of chloroform-hexane (1:1) containing 420 μg of linoleic acid as a carrier. Add 200 μL of resuspending (chloroform-hexane (1:1) containing 168 μg of linoleic acid) to 2 mL Ultima Gold™, after 30 min, count on a scintillation counter.

ACL [3] = molecular target: T1, ACL (Homo sapiens (Human), UniProt P53396); assay: ADP-Glo Assay
Target sequence in this assay (P53396 other isoform, or with tags, fused parts or gaps isoform P53396-2): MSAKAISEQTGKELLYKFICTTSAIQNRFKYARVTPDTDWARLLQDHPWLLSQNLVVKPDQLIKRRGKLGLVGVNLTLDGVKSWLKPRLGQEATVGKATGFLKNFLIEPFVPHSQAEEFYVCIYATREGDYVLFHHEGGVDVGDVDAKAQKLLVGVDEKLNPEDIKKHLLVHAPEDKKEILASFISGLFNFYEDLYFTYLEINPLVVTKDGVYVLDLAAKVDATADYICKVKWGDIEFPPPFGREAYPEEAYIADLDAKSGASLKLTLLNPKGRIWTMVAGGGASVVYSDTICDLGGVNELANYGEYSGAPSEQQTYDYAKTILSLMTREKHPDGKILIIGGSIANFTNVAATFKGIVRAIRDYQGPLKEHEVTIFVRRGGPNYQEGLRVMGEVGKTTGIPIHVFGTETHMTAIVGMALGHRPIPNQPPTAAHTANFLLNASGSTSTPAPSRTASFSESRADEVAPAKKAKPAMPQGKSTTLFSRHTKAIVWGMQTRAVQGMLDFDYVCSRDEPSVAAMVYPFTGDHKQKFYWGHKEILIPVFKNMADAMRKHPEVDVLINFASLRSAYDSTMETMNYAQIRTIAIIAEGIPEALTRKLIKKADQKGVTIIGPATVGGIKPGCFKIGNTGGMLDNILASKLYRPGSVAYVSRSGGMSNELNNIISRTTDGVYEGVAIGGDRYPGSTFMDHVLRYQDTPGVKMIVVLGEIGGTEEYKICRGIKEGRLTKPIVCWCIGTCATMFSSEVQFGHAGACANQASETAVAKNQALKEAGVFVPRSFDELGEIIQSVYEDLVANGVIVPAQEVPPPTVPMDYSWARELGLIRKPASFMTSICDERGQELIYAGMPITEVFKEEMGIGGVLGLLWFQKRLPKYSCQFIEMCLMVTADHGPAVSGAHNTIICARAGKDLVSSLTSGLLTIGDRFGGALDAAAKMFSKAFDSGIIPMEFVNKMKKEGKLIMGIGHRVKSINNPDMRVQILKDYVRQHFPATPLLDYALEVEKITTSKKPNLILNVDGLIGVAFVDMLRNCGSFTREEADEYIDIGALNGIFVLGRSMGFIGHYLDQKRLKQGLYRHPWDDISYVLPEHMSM
Description: Compounds of the present invention were evaluated in an ADP-GLO assay as follows:
b) Add 0.1 μL diluted cpd solution to assay plate, each dose with 2 replicates c) Centrifuge 1000 RPM for 1 min d) Add 5 μL ACL working solution to 384-well assay plate, centrifuge 1000 RPM for 1 min e) Incubate at 25° C. for 15 min f) Add 5 μL substrate working solution to initiate reaction
h) Reference final conc: 30 uM starting Conc, 3× dilution, 11+0 points. Test cpd conc: 30/100 uM starting Conc, 3× dilution, 11+0 points. i) Incubate at 25° C. for 60 min j) Add 10 μL ADP Glo reagent, centrifuge 1000 RPM for 1 min k) Incubate at 25° C. for 40 min l) Add 20 μL kinase detection reagent, centrifuge 1000 RPM for 1 min m) Incubate at 25° C. for 40 min n) Read on Envision for US LUM as RLU

HepG2 cells [4] = assay: ACLY HepG2 14C-Pyruvate incorporation assay with serum (IC50 Cholesterol); format: cell-based; conditions: Homo sapiens, table title: with serum, column head: serum free, 96 well
Description: The protocol below was followed:
(§1) 5. […] 6. […] 7. […] 8. […] 9. Repeat the Step 8 10.

HepG2 cells [5] = assay: ACLY HepG2 14C-Pyruvate incorporation assay with serum (IC50 Fatty Acid); format: cell-based; conditions: Homo sapiens, table title: with serum, column head: serum free, 96 well, read-out: ACLY HepG2 14C-Pyruvate Assay serum free IC50 FA 96 well (IC50)
Description: Example 333. ACLY HepG2 ^14C-Pyruvate Incorporation Assay (IC50 Fatty Acid)
as §1

ACL [6] = molecular target: T1, ACL; assay: ACLY-MDH Coupled Assay
Target sequence in this assay (P53396 whole entry, species assumed): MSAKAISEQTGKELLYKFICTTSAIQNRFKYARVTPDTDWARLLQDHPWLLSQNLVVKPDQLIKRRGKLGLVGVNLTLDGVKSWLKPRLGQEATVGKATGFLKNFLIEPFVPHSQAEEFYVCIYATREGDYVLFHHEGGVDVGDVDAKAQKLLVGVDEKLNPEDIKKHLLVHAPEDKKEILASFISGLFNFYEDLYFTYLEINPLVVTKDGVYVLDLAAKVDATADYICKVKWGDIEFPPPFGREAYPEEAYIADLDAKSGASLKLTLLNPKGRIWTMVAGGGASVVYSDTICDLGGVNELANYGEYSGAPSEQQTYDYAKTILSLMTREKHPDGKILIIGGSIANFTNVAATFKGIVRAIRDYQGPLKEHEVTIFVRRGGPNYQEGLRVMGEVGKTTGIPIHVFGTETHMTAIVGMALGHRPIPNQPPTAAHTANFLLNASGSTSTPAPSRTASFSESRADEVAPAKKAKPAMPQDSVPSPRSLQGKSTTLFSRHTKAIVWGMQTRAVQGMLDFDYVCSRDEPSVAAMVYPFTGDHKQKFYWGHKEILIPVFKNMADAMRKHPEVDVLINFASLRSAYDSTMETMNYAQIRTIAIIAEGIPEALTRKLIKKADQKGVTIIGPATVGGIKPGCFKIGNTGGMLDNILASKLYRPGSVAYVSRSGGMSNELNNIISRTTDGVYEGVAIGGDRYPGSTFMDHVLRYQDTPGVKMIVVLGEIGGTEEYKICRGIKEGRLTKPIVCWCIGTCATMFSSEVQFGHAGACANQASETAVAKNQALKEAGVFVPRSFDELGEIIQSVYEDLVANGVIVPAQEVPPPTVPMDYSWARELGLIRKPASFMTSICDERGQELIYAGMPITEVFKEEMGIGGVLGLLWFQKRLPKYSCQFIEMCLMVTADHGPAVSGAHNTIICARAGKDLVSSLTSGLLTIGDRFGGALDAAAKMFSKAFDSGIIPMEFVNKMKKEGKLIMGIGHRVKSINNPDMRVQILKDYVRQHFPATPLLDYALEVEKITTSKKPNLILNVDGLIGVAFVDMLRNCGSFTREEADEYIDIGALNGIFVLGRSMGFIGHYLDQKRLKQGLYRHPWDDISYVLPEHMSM
Description: Compounds of the present invention were evaluated in an ACLY Coupled Assay.
The assay protocol for the Coupled Assay (below) was followed:
b) Add 1 μL cpds to 96 assay plate, Test cpd conc: 100/30/10 μM top dose, 3 folds dilution, 10+0+control (control: buffer without ACL+DMSO) points, 1000 rpm for 1 min, incubation at 25° C. for 60 min

[7] = read-out: ACL-ADP-Glo (IC50), 3 nM ACL, 15 μM ATP, 3 μM CoA, 300 μM Citrate
[8] = read-out: ACL-MDH Coupled Assay (IC50), 8 nM ACL, 60 μM CoA Na2, 85 μM Citrate, 250 μM ATP, 250 μM NADH

| IC50 (HepG2 cells [1]) | IC50 (HepG2 cells [2]) | IC50 (ACL [3]; [7]) | IC50 (HepG2 cells [4]) | IC50 (HepG2 cells [5]) | IC50 (ACL [6]; [8]) | IC50 (ACL [3]) | IC50 (ACL [6]) | Structure (SMILES) |
| --- | --- | --- | --- | --- | --- | --- | --- | --- |
| 1 to 10 µM | < 1 µM | < 0.05 µM | < 1 µM | 1 to 5 µM | < 0.05 µM |  |  | O=S(=O)(Nc1cc(-c2ccccc2)c(F)cc1F)c1cc(-c2cncs2)cc(Cl)c1O [I-123, 3-chloro-N-(4,6-difluoro-[1,1′-biphenyl]-3-yl)-2-hydroxy-5-(thiazol-5-yl)benzenesulfonamide] |
| 1 to 10 µM | 1 to 5 µM |  |  |  |  | 0.05 to 0.5 µM | 0.05 to 0.5 µM | O=C(O)c1ccc(-c2ccccc2)cc1NS(=O)(=O)c1cc(Cl)cc(Cl)c1 [I-208, 3-((3,5-dichlorophenyl)sulfonamido)-[1,1′-biphenyl]-4-carboxylic Acid] |
| 1 to 10 µM | 1 to 5 µM |  |  |  |  | 0.5 to 20 µM | 0.5 to 30 µM | O=C(Nc1cc(-c2ccccc2)ccc1C(=O)O)c1cc(Cl)cc(C(F)(F)F)c1 [I-349, 3-(3-chloro-5-(trifluoromethyl)benzamido)-[1,1′-biphenyl]-4-carboxylic Acid] |
| > 10 µM | 1 to 5 µM |  |  |  |  | 0.5 to 20 µM | 0.5 to 30 µM | O=C(O)c1c(NS(=O)(=O)c2cc(Cl)cc(Cl)c2)sc2ccccc12 [I-361, 2-((3,5-dichlorophenyl)sulfonamido)benzo[b]thiophene-3-carboxylic acid] |
| > 10 µM | 1 to 5 µM | < 0.05 µM |  |  | < 0.05 µM |  |  | COC(=O)c1cc(Cl)c(O)c(S(=O)(=O)Nc2cc(C(C)C)c(F)cc2F)c1 [I-198, Methyl 3-chloro-5-(N-(2,4-difluoro-5-isopropylphenyl)sulfamoyl)-4-hydroxybenzoate] |
| > 10 µM | 1 to 5 µM |  |  |  |  | 0.5 to 20 µM | 0.5 to 30 µM | O=S(=O)(Nc1cc(-c2ccccc2)c(F)cc1F)c1cc(CN2CCC2)cc(Cl)c1O [I-272, 5-(azetidin-1-ylmethyl)-3-chloro-N-(4,6-difluoro-[1,1′-biphenyl]-3-yl)-2-hydroxybenzenesulfonamide] |
| > 10 µM | 1 to 5 µM |  |  |  |  | 0.5 to 20 µM | 0.5 to 30 µM | O=C(O)c1ccc(-c2ccccc2)cc1NS(=O)(=O)c1cccc(-n2cnnn2)c1 [I-372] |
| 1 to 10 µM | 1 to 5 µM |  |  |  |  | 0.5 to 20 µM | 0.5 to 30 µM | O=C(Nc1cc(-c2ccccc2)ccc1C(=O)O)c1cc(Cl)cc(Cl)c1 [I-260, 3-(3,5-dichlorobenzamido)-[1,1′-biphenyl]-4-carboxylic Acid] |
| 1 to 10 µM | 1 to 5 µM |  |  |  |  | 0.5 to 20 µM | 0.5 to 30 µM | Cc1cc(C(=O)O)c(NS(=O)(=O)c2cc(Cl)cc(C(F)(F)F)c2)cc1-c1ccccc1 [I-364, 5-((3-chloro-5-(trifluoromethyl)phenyl)sulfonamido)-2-methyl-[1,1′-biphenyl]-4-carboxylic Acid] |
| 1 to 10 µM | 5 to 20 µM |  |  |  |  | 0.5 to 20 µM | 0.05 to 0.5 µM | O=C(O)c1ccc(-c2ccccc2)cc1NS(=O)(=O)c1cc(F)cc(Cl)c1 [I-233, 3-((3-chloro-5-fluorophenyl)sulfonamido)-[1,1′-biphenyl]-4-carboxylic acid] |
| 1 to 10 µM | 1 to 5 µM |  |  |  |  | 0.05 to 0.5 µM | 0.05 to 0.5 µM | CCOc1c(Cl)cc(Cl)cc1S(=O)(=O)Nc1cc(-c2ccccc2)ccc1C(=O)O [I-348, 3-((3,5-dichloro-2-ethoxyphenyl)sulfonamido)-[1,1′-biphenyl]-4-carboxylic Acid] |
| > 10 µM | 1 to 5 µM | < 0.05 µM |  |  |  |  | 0.05 to 0.5 µM | O=C(Oc1c(Cl)cc(C(=O)N2CCC2)cc1S(=O)(=O)Nc1cc(-c2ccccc2)c(F)cc1F)C1CC1 [I-236, 4-(azetidine-1-carbonyl)-2-chloro-6-(N-(4,6-difluoro-[1,1′-biphenyl]-3-yl)sulfamoyl)phenyl cyclopropanecarboxylate] |

The remaining lines, values behind:

| Structure (SMILES) | IC50 (HepG2 cells [1]) | IC50 (HepG2 cells [2]) | IC50 (ACL [3]; [7]) | IC50 (HepG2 cells [4]) | IC50 (HepG2 cells [5]) | IC50 (ACL [6]; [8]) | IC50 (ACL [3]) | IC50 (ACL [6]) |
| --- | --- | --- | --- | --- | --- | --- | --- | --- |
| CCOC(=O)c1cc(Cl)c(O)c(S(=O)(=O)Nc2cc(-c3ccccc3)c(F)cc2F)c1 [I-84, ethyl 3-chloro-5-[(2,4-difluoro-5-phenylphenyl)sulfamoyl]-4-hydroxybenzoate] | 1 to 10 µM | < 1 µM | < 0.05 µM | < 1 µM | 1 to 5 µM | < 0.05 µM |  |  |
| O=S(=O)(NC(c1ccccc1)c1ccccc1)c1cc(Cl)cc(Cl)c1O [I-16, N-benzhydry1-3,5-dichloro-2-hydroxybenzenesulfonamide] | 1 to 10 µM | 1 to 5 µM |  |  |  |  | 0.5 to 20 µM | 0.5 to 30 µM |
| COC(=O)c1cc(Cl)c(O)c(S(=O)(=O)Nc2cc(-c3cccs3)ccc2F)c1 [I-60, Methyl 3-chloro-5-[[2-fluoro-5-(thiophen-2-yl)phenyl]sulfamoyl]-4-hydroxybenzoate] | 1 to 10 µM | < 1 µM | < 0.05 µM |  |  | < 0.05 µM |  |  |
| CCC(=O)c1cc(Cl)c(O)c(S(=O)(=O)Nc2cc(-c3ccccc3)c(F)cc2F)c1 [I-101, 3-chloro-N-(2,4-difluoro-5-phenylphenyl)-2-hydroxy-5-propanoylbenzene-1-sulfonamide] | > 10 µM | < 1 µM | < 0.05 µM |  |  | < 0.05 µM |  |  |
| COCc1cc(Cl)c(O)c(S(=O)(=O)Nc2cc(-c3ccccc3)c(F)cc2F)c1 [I-91, 3-chloro-N-(2,4-difluoro-5-phenylphenyl)-2-hydroxy-5-(methoxymethyl)benzene-1-sulfonamide] | 1 to 10 µM | 1 to 5 µM |  |  |  |  | 0.05 to 0.5 µM | 0.05 to 0.5 µM |
| CON(C)C(=O)c1cc(Cl)c(O)c(S(=O)(=O)Nc2cc(-c3ccccc3)c(F)cc2F)c1 [I-87, 3-chloro-5-[(2,4-difluoro-5-phenylphenyl)sulfamoyl]-4-hydroxy-N-methoxy-N-methylbenzamide] | > 10 µM | 1 to 5 µM | < 0.05 µM |  |  | < 0.05 µM |  |  |
| COc1ccc(-c2ccccc2)cc1NS(=O)(=O)c1cc(Br)cc(Cl)c1O [I-21, 5-bromo-3-chloro-2-hydroxy-N-(2-methoxy-5-phenylphenyl)benzene-1-sulfonamide] | 1 to 10 µM | 1 to 5 µM |  |  |  |  | 0.05 to 0.5 µM | 0.05 to 0.5 µM |
| O=S(=O)(Nc1cc(-c2ccccc2)c(F)cc1F)c1cc(CO)cc(Cl)c1O [I-90, 3-chloro-N-(2,4-difluoro-5-phenylphenyl)-2-hydroxy-5-(hydroxymethyl)benzene-1-sulfonamide] | > 10 µM | 1 to 5 µM |  |  |  |  | 0.05 to 0.5 µM | 0.05 to 0.5 µM |
| O=S(=O)(Nc1cc(-c2ccccc2)ccc1F)c1cc(Br)ccc1O [I-113, N5-bromo-N-(2-fluoro-5-phenylphenyl)-2-hydroxybenzene-1-sulfonamide] | 1 to 10 µM | 1 to 5 µM |  |  |  |  | 0.5 to 20 µM | 0.5 to 30 µM |
| O=S(=O)(Nc1cc(-c2ccccc2)ccc1F)c1cc(Cl)cc(Br)c1O [I-23, 3-bromo-5-chloro-N-(4-fluoro-[1,1′-biphenyl]-3-yl)-2-hydroxybenzenesulfonamide] | 1 to 10 µM | 1 to 5 µM |  |  |  |  | 0.05 to 0.5 µM | < 0.05 µM |
| O=S(=O)(Nc1cc(-c2ccccc2)ccc1F)c1cccc(Cl)c1O [I-33, 3-chloro-N-(4-fluoro-[1,1′-biphenyl]-3-yl)-2-hydroxybenzenesulfonamide] | > 10 µM | 1 to 5 µM |  |  |  |  | 0.05 to 0.5 µM | 0.5 to 30 µM |
| CC(C)OC(=O)c1cc(Cl)c(O)c(S(=O)(=O)Nc2cc(-c3ccccc3)c(F)cc2F)c1 [I-86, propan-2-yl 3-chloro-5-[(2,4-difluoro-5-phenylphenyl)sulfamoyl]-4-hydroxybenzoate] | > 10 µM | 1 to 5 µM | < 0.05 µM |  |  | < 0.05 µM |  |  |
| O=S(=O)(Nc1cc(-c2ccccc2)c(F)cc1F)c1cc(-c2ncco2)cc(Cl)c1O [I-116, 3-chloro-N-[4,6-difluoro-[1,1-biphenyl]-3-yl]-2-hydroxy-5-(1,3-oxazol-2-yl)benzene-1-sulfonamide] | > 10 µM | 1 to 5 µM | < 0.05 µM |  |  | < 0.05 µM |  |  |
| O=C(c1cc(Cl)c(O)c(S(=O)(=O)Nc2cc(-c3cc4ccccc4s3)c(F)cc2F)c1)N1CCC1 [I-138, 5-(azetidine-1-carbonyl)-N-[5-(1-benzothiophen-2-yl)-2,4-difluorophenyl]-3-chloro-2-hydroxybenzene-1-sulfonamide] | 1 to 10 µM | 1 to 5 µM | < 0.05 µM |  |  | < 0.05 µM |  |  |
| COC(=O)c1cc(Cl)c(O)c(S(=O)(=O)Nc2cc(-c3ccccc3)cc(F)c2F)c1 [I-111, Methyl 3-chloro-5-[(2,3-difluoro-5-phenylphenyl)sulfamoyl]-4-hydroxybenzoate] | > 10 µM | 1 to 5 µM | < 0.05 µM |  |  | < 0.05 µM |  |  |
| COc1ccc(-c2ccc(F)cc2)cc1NS(=O)(=O)c1cc(Cl)cc(Cl)c1O [I-6, 3,5-dichloro-N-(4′-fluoro-4-methoxy-[1,1′-biphenyl]-3-yl)-2-hydroxybenzenesulfonamide] | > 10 µM | 1 to 5 µM |  |  |  |  | 0.05 to 0.5 µM | 0.05 to 0.5 µM |
